Source: US20230257415A1, “COMPOUNDS FOR TREATING CNS DISORDERS” (SAGE THERAPEUTICS, INC., priority 2019, published 2023)

Target: GABAA receptor
Assay: [35S]-TBPS binding assay, rat brain cortical membranes, in the presence of GABA
Conditions: inhibition of 3 nM [35S]-TBPS binding, 5 mM GABA, 90 min, room temp
Procedure: [35S]-t-Butylbicyclophosphorothionate (TBPS) binding assays using rat brain cortical membranes in the presence of 5 mM GABA has been described (Gee et al, J. Pharmacol. Exp. Ther. 1987, 241, 346-353; Hawkinson et al, Mol. Pharmacol. 1994, 46, 977-985; Lewin, A.H et al., Mol. Pharmacol. 1989, 35, 189-194).
Briefly, cortices are rapidly removed following decapitation of carbon dioxide-anesthetized Sprague-Dawley rats (200-250 g). The cortices are homogenized in 10 volumes of ice-cold 0.32 M sucrose using a glass/teflon homogenizer and centrifuged at 1500 x g for 10 min at 4° C. The resultant supernatants are centrifuged at 10,000 x g for 20 min at 4° C. to obtain the P2 pellets. The P2 pellets are resuspended in 200 mM NaCl/50 mM Na-K phosphate pH 7.4 buffer and centrifuged at 10,000 x g for 10 min at 4° C. This washing procedure is repeated twice and the pellets are resuspended in 10 volumes of buffer. Aliquots ([…]) of the membrane suspensions are incubated with 3 nM [^35S]-TBPS and […] aliquots of test drug dissolved in dimethyl sulfoxide (DMSO) (final 0.5%) in the presence of 5 mM GABA. The incubation is brought to a final volume of 1.0 mL with buffer. […] Following a 90 min incubation at room temp, the assays are terminated by filtration through glass fiber filters (Schleicher and Schuell No. 32) using a cell harvester (Brandel) and rinsed three times with ice-cold buffer. Filter bound radioactivity is measured by liquid scintillation spectrometry. Non-linear curve fitting of the overall data for each drug averaged for each concentration is done using Prism (GraphPad). […] The concentration of test compound producing 50% inhibition (IC50) of specific binding and the maximal extent of inhibition (Imax) are determined for the individual experiments with the same model used for the overall data and then the means ± SEM.s of the individual experiments are calculated.
Various compounds are or can be screened to determine their potential as modulators of [^35S]-TBPS binding in vitro. These assays are or can be performed in accordance with the above.

SMILES | IC50
Cn1ccc(C(=O)NC[C@H]2CCC[C@H]3[C@@H]4CC[C@@H]5C[C@](C)(O)CC[C@@H]5[C@H]4CC[C@]23C)n1 [Example 27, N-(((1S,4aS,4bR,6aR,8R,10aS,10bR,12aS)-8-hydroxy-8,12a-dimethyloctadecahydrochrysen-1-yl)methyl)-1-methyl-1H-pyrazole-3-carboxamide] | 100 to 1000 nM
C[C@@]1(O)CC[C@H]2[C@H](CC[C@@H]3[C@@H]2CC[C@]2(C)[C@@H](CNC(=O)c4ccccn4)CCC[C@@H]32)C1 [Example 29, N-(((1S,4aS,4bR,6aR,8R,10aS,10bR,12aS)-8-hydroxy-8,12a-dimethyloctadecahydrochrysen-1-yl)methyl)picolinamide] | 100 to 1000 nM
C[C@@]1(O)CC[C@H]2[C@H](CC[C@@H]3[C@@H]2CC[C@]2(C)[C@@H](CNC(=O)c4ccccc4F)CCC[C@@H]32)C1 [Example 30, 2-fluoro-N-(((1S,4aS,4bR,6aR,8R,10aS,10bR,12aS)-8-hydroxy-8,12a-dimethyloctadecahydrochrysen-1-yl)methyl)benzamide] | < 100 nM
C[C@@]1(O)CC[C@H]2[C@H](CC[C@@H]3[C@@H]2CC[C@]2(C)[C@@H](CNC(=O)c4cccc(C#N)c4)CCC[C@@H]32)C1 [Example 31, 3-cyano-N-(((1S,4aS,4bR,6aR,8R,10aS,10bR,12aS)-8-hydroxy-8,12a-dimethyloctadecahydrochrysen-1-yl)methyl)benzamide] | 100 to 1000 nM
C[C@@]1(O)CC[C@H]2[C@H](CC[C@@H]3[C@@H]2CC[C@]2(C)[C@@H](CNS(=O)(=O)C4CC4)CCC[C@@H]32)C1 [Example 32, N-(((1S,4aS,4bR,6aR,8R,10aS,10bR,12aS)-8-hydroxy-8,12a-dimethyloctadecahydrochrysen-1-yl)methyl)cyclopropanesulfonamide] | 100 to 1000 nM
Cn1nccc1C(=O)NC[C@H]1CCC[C@H]2[C@@H]3CC[C@@H]4C[C@](C)(O)CC[C@@H]4[C@H]3CC[C@]12C [Example 33, N-(((1S,4aS,4bR,6aR,8R,10aS,10bR,12aS)-8-hydroxy-8,12a-dimethyloctadecahydrochrysen-1-yl)methyl)-1-methyl-1H-pyrazole-5-carboxamide] | 100 to 1000 nM
C[C@@]1(O)CC[C@H]2[C@H](CC[C@@H]3[C@@H]2CC[C@]2(C)[C@@H](CNC(=O)c4ccc(C#N)cc4)CCC[C@@H]32)C1 [Example 34, 4-cyano-N-(((1S,4aS,4bR,6aR,8R,10aS,10bR,12aS)-8-hydroxy-8,12a-dimethyloctadecahydrochrysen-1-yl)methyl)benzamide] | 100 to 1000 nM
C[C@@]1(O)CC[C@H]2[C@H](CC[C@@H]3[C@@H]2CC[C@]2(C)[C@@H](CNC(=O)c4cccnc4)CCC[C@@H]32)C1 [Example 35, N-(((1S,4aS,4bR,6aR,8R,10aS,10bR,12aS)-8-hydroxy-8,12a-dimethyloctadecahydrochrysen-1-yl)methyl)nicotinamide] | 100 to 1000 nM
CC[C@]12CC[C@@](C)(O)C[C@H]1CC[C@H]1[C@@H]3CCC[C@H](CNC(=O)c4ccccc4)[C@@]3(C)CC[C@@H]12 [Example 36, N-(((1S,4aS,4bS,6aR,8R,10aS,10bS,12aS)-10a-ethyl-8-hydroxy-8,12a-dimethyloctadecahydrochrysen-1-yl)methyl)benzamide] | 100 to 1000 nM
CC[C@]12CC[C@@](C)(O)C[C@H]1CC[C@H]1[C@@H]3CCC[C@H](CN(C)C(=O)c4ccccc4)[C@@]3(C)CC[C@@H]12 [Example 37, N-(((1S,4aS,4bS,6aR,8R,10aS,10bS,12aS)-10a-ethyl-8-hydroxy-8,12a-dimethyloctadecahydrochrysen-1-yl)methyl)-N-methylbenzamide] | 100 to 1000 nM
CC[C@]12CC[C@@](C)(O)C[C@H]1CC[C@H]1[C@@H]3CCC[C@H](CN(C)S(=O)(=O)c4ccccc4)[C@@]3(C)CC[C@@H]12 [Example 38, N-(((1S,4aS,4bS,6aR,8R,10aS,10bS,12aS)-10a-ethyl-8-hydroxy-8,12a-dimethyloctadecahydrochrysen-1-yl)methyl)-N-methylbenzenesulfonamide] | < 100 nM
CC[C@]12CC[C@@](C)(O)C[C@H]1CC[C@H]1[C@@H]3CCC[C@H](CNS(=O)(=O)c4ccccc4)[C@@]3(C)CC[C@@H]12 [Example 39, N-(((1S,4aS,4bS,6aR,8R,10aS,10bS,12aS)-10a-ethyl-8-hydroxy-8,12a-dimethyloctadecahydrochrysen-1-yl)methyl)benzenesulfonamide] | 100 to 1000 nM
CC[C@]12CCC3[C@H]4CC[C@](O)(COC)C[C@H]4CC[C@H]3[C@@H]1CCC[C@@H]2CNC(=O)c1ccc(C#N)cc1 (stereo partly drawn) [Example 41, 4-cyano-N-(((1S,4aS,4bR,6aR,8R,10aS,12aS)-12a-ethyl-8-hydroxy-8-(methoxymethyl)octadecahydrochrysen-1-yl)methyl)benzamide] | 100 to 1000 nM
C[C@H](NC(=O)c1ccc(C#N)cc1)[C@H]1CCC[C@H]2[C@@H]3CC[C@@H]4C[C@](C)(O)CC[C@@H]4C3CC[C@]12C (stereo partly drawn) [Example 42, 4-cyano-N-((1S)-1-((1S,4aS,4bR,6aR,8R,10aS,12aS)-8-hydroxy-8,12a-dimethyloctadecahydrochrysen-1-yl)ethyl)benzamide] | 100 to 1000 nM
C[C@@H](NC(=O)c1ccc(C#N)cc1)[C@H]1CCC[C@H]2[C@@H]3CC[C@@H]4C[C@](C)(O)CC[C@@H]4C3CC[C@]12C (stereo partly drawn) [Example 43, 4-cyano-N-((1R)-1-((1S,4aS,4bR,6aR,8R,10aS,12aS)-8-hydroxy-8,12a-dimethyloctadecahydrochrysen-1-yl)ethyl)benzamide] | 100 to 1000 nM
COC[C@@]1(O)CC[C@@H]2C3CC[C@]4(C)[C@@H]([C@@H](C)NC(=O)c5ccc(F)cc5)CCC[C@H]4[C@@H]3CC[C@@H]2C1 (stereo partly drawn) [Example 44, 4-fluoro-N-((1R)-1-((1S,4aS,4bR,6aR,8R,10aS,12aS)-8-hydroxy-8-(methoxymethyl)-12a-methyloctadecahydrochrysen-1-yl)ethyl)benzamide] | 100 to 1000 nM
COC[C@@]1(O)CC[C@@H]2C3CC[C@]4(C)[C@@H]([C@H](C)NC(=O)c5ccc(F)cc5)CCC[C@H]4[C@@H]3CC[C@@H]2C1 (stereo partly drawn) [Example 45, 4-fluoro-N-((1S)-1-((1S,4aS,4bR,6aR,8R,10aS,12aS)-8-hydroxy-8-(methoxymethyl)-12a-methyloctadecahydrochrysen-1-yl)ethyl)benzamide] | 100 to 1000 nM
COC[C@@]1(O)CC[C@@H]2C3CC[C@]4(C)[C@@H]([C@@H](C)NC(=O)c5ccc(C#N)cc5)CCC[C@H]4[C@@H]3CC[C@@H]2C1 (stereo partly drawn) [Example 46, 4-cyano-N-((1R)-1-((1S,4aS,4bR,6aR,8R,10aS,12aS)-8-hydroxy-8-(methoxymethyl)-12a-methyloctadecahydrochrysen-1-yl)ethyl)benzamide] | 100 to 1000 nM
COC[C@@]1(O)CC[C@@H]2C3CC[C@]4(C)[C@@H]([C@H](C)NC(=O)c5ccc(C#N)cc5)CCC[C@H]4[C@@H]3CC[C@@H]2C1 (stereo partly drawn) [Example 47, 4-cyano-N-((1S)-1-((1S,4aS,4bR,6aR,8R,10aS,12aS)-8-hydroxy-8-(methoxymethyl)-12a-methyloctadecahydrochrysen-1-yl)ethyl)benzamide] | 100 to 1000 nM
C[C@H](Nc1cccc(C#N)c1)[C@H]1CCC[C@H]2[C@@H]3CC[C@@H]4C[C@](C)(O)CC[C@@H]4C3CC[C@]12C (stereo partly drawn) [Example 48, 3-(((1S)-1-((1S,4aS,4bR,6aR,8R,10aS,12aS)-8-hydroxy-8,12a-dimethyloctadecahydrochrysen-1-yl)ethyl)amino)benzonitrile] | < 100 nM
C[C@@H](Nc1cccc(C#N)c1)[C@H]1CCC[C@H]2[C@@H]3CC[C@@H]4C[C@](C)(O)CC[C@@H]4C3CC[C@]12C (stereo partly drawn) [Example 49, 3-(((1R)-1-((1S,4aS,4bR,6aR,8R,10aS,12aS)-8-hydroxy-8,12a-dimethyloctadecahydrochrysen-1-yl)ethyl)amino)benzonitrile] | < 100 nM
C[C@H](Nc1ccc(C#N)cc1)[C@H]1CCC[C@H]2[C@@H]3CC[C@@H]4C[C@](C)(O)CC[C@@H]4C3CC[C@]12C (stereo partly drawn) [Example 50, 4-(((1S)-1-((1S,4aS,4bR,6aR,8R,10aS,12aS)-8-hydroxy-8,12a-dimethyloctadecahydrochrysen-1-yl)ethyl)amino)benzonitrile] | < 100 nM
